Target: T1, phosphoMEK (activated MEK-1) (Homo sapiens, UniProt Q02750)
T1 construct: purchased Upstate (Waltham, Mass.) #14-429, lot #26232U
Experiment: ATPase activity of commercially acquired phosphoMEK in the absence of B-Raf
Assay type: biochemical
Conditions: data not shown

T1 sequence (Q02750 whole entry): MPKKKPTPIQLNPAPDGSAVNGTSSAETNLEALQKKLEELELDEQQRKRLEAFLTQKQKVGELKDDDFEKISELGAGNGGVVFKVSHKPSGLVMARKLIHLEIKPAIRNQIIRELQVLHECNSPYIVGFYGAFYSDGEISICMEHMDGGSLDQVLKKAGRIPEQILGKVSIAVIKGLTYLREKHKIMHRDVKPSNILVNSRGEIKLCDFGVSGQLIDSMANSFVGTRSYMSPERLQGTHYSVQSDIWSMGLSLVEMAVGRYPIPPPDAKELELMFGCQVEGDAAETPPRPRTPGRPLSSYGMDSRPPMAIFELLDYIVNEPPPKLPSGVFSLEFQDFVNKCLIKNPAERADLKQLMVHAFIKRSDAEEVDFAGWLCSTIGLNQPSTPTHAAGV

CN(C)CCOc1ccc(-c2nc(-c3ccncc3)c(-c3ccc4c(c3)CC/C4=N\O)[nH]2)cc1 [SB-590885]
IC50: > 10 µM

Source: patent publication US20060211073A1, “Assay for B-Raf activity based on intrinsic MEK ATPase activity” (priority 2005, published 2006)
